Where two headings read alike, the source gives them in different places.
System: CD8+ T cells
Format: cell-based, human

## CC(C)[C@H](NC(=O)[C@H](Cc1ccccc1)NC(=O)[C@H](CCCNC(=N)N)NC(=O)[C@H](C)NC(=O)[C@H](Cc1c[nH]cn1)NC(=O)[C@H](C)NC(=O)[C@H](C)N)C(=O)N[C@@H](C)C(=O)N[C@@H](C)C(=O)O
Donor D454 (LTBI)
  # SFU: 88 SFU/250,000 CD8+ T cells

## CSCC[C@H](NC(=O)[C@H](CCC(=O)O)NC(=O)[C@H](C)N)C(=O)N[C@@H](CCCCN)C(=O)N[C@H](C(=O)N[C@@H](CC(=O)O)C(=O)N[C@@H](C)C(=O)N[C@@H](C)C(=O)O)[C@@H](C)O
Donor D466 (active TB)
  # SFU: 2458 SFU/250,000 CD8+ T cells

## CSCC[C@H](NC(=O)[C@H](CCC(=O)O)NC(=O)[C@H](C)N)C(=O)N[C@@H](CCCCN)C(=O)N[C@H](C(=O)N[C@@H](CC(=O)O)C(=O)N[C@@H](C)C(=O)N[C@@H](C)C(=O)N[C@H](C(=O)N[C@@H](CC(C)C)C(=O)N[C@@H](C)C(=O)O)[C@@H](C)O)[C@@H](C)O
  # SFU: 1993 SFU/250,000 CD8+ T cells

## CC(C)C[C@H](NC(=O)[C@H](Cc1ccc(O)cc1)NC(=O)[C@H](CO)NC(=O)[C@H](CCC(N)=O)NC(=O)[C@H](C)NC(=O)[C@@H](NC(=O)[C@@H]1CCCN1C(=O)[C@H](CO)NC(=O)[C@H](C)N)C(C)C)C(=O)O
Donor D432 (active TB)
  # SFU: 210 SFU/250,000 CD8+ T cells

## CC[C@H](C)[C@H](NC(=O)[C@@H](NC(=O)[C@H](C)N)C(C)C)C(=O)N[C@@H](CC(N)=O)C(=O)N[C@H](C(=O)N[C@H](C(=O)N[C@@H](CS)C(=O)N[C@@H](CC(N)=O)C(=O)N[C@@H](Cc1ccc(O)cc1)C(=O)NCC(=O)N[C@@H](CCC(N)=O)C(=O)O)[C@@H](C)O)[C@@H](C)O
Donor D454 (LTBI)
  # SFU: 24 SFU/250,000 CD8+ T cells

## CSCC[C@H](NC(=O)[C@@H](N)CCC(=O)O)C(=O)N[C@@H](CCCCN)C(=O)N[C@H](C(=O)N[C@@H](CC(=O)O)C(=O)N[C@@H](C)C(=O)N[C@@H](C)C(=O)N[C@H](C(=O)N[C@@H](CC(C)C)C(=O)O)[C@@H](C)O)[C@@H](C)O
Donor D480 (active TB)
  # SFU: 387 SFU/250,000 CD8+ T cells

## CC[C@H](C)[C@H](NC(=O)[C@H](Cc1c[nH]cn1)NC(=O)[C@H](C)NC(=O)[C@H](CC(=O)O)NC(=O)[C@H](CC(C)C)NC(=O)[C@@H](N)CC(C)C)C(=O)N1CCC[C@H]1C(=O)N[C@@H](CCC(N)=O)C(=O)N[C@@H](CC(C)C)C(=O)O
Donor D504 (LTBI)
  # SFU: <10 SFU/250,000 CD8+ T cells

## CC[C@H](C)[C@H](NC(=O)[C@@H](N)CC(N)=O)C(=O)N[C@@H](CCCNC(=N)N)C(=O)N[C@@H](CCC(N)=O)C(=O)N[C@@H](C)C(=O)NCC(=O)N[C@H](C(=O)N[C@@H](CCC(N)=O)C(=O)N[C@@H](Cc1ccc(O)cc1)C(=O)O)C(C)C
Donor D481 (active TB)
  # SFU: 1715 SFU/250,000 CD8+ T cells

## CC(C)[C@H](NC(=O)[C@H](C)NC(=O)[C@H](C)NC(=O)[C@H](CCC(N)=O)NC(=O)[C@H](C)NC(=O)[C@H](C)NC(=O)[C@@H](N)[C@@H](C)O)C(=O)N[C@H](C(=O)N[C@@H](CCCNC(=N)N)C(=O)N[C@@H](Cc1ccccc1)C(=O)O)C(C)C
  # SFU: 258 SFU/250,000 CD8+ T cells

## ELPQWLSANR
  # SFU: <10 SFU/250,000 CD8+ T cells

## QTVEDEARRMW
  #SFU/250,000 CD8+ T-cells: 84

## RADEEQQQAL
  # SFU: 120 SFU/250,000 CD8+ T cells

From patent publication US9040233B2 (priority 2007, dated 2015)
